Experimental data from publication PMC7692337, “Masked Phenolic-Selenium Conjugates: Potent and Selective Antiproliferative Agents Overcoming P-gp Resistance” (Pharmaceuticals, 2020).
Read-outs that look alike come from different tables or passages of the source.

Assays:
[1] = test system: six human tumour cell lines (A549, HBL-100, HeLa, SW1573, T-47D, WiDr); assay: Antiproliferative activity, panel of six human tumour cell lines; assay type: cell-based
Procedure: (§1) Organochalcogen derivatives prepared herein were evaluated in vitro as potential antiproliferative agents, using a panel of six human tumour cell lines: A549 (non-small cell lung), HBL-100 (breast), HeLa (cervix), SW1573 (non-small cell lung), as drug sensitive lines, T-47D (breast) and WiDr (colon) as drug resistant lines. In addition to precursors 2, 6, 7, 13, 14, 17, 19, ebselen and cisplatin (CDDP) were used as reference drugs. […] In both cases, the NCI protocol, with minor modifications, was followed; selected data, including the selectivity index (S.I.) can be found in Table 3 and full data in Supporting Information (Table S1).
(§2) The in vitro antiproliferative activity was assayed using minor modifications of the protocol of the National Cancer Institute (NCI) of the United States against the six human solid tumor cell and the non-tumor cell lines tested.

[2] = P-glycoprotein assay, line overexpressing P-gp; assay type: cell-based, human; settings: human, 48 h exposure
Procedure: (§3) This assay allows prediction of whether a certain chemotherapeutic agent could develop chemoresistance when behaving as a P-gp substrate, one of the most common efllux-pumps used for the extrusion of cell xenobiotics. For that purpose, a cell line-based assay was used, in particular the lung cancer cell line in its wild type (SW1573), and its variant overexpressing P-gp (Sw1573/Pgp). Moreover, compounds were tested in the presence and in the absence of verapamil, which is known to inhibit P-gp. Chemotherapeutic agents paclitaxel (PTX) and vinblastine (VB) are used herein as reference compounds. In this assay, the resistance factor (Rf) for a certain compound is defined as the ratio of GI50 in the cell line overexpressing P-gp and the wild one (Table 4), high values of Rf denoting that the compound behaves as a P-gp substrate, and thus, chemoresistance through this mechanism will probably take place.

SW1573/Pgp = assay: P-glycoprotein assay, line overexpressing P-gp; assay type: cell-based, human; settings: ratio between GI50 values in SW1573/PGP and SW1573 cells
Procedure: as §3

[3] = H2O2 scavenging (phenol red / horseradish peroxidase); settings: At 50 µM
Procedure: (§4) In vitro antioxidant properties of key unprotected phenolic derivatives were analyzed using two different methodologies: free radical scavenging capacity, using the DPPH method (2,2-diphenyl-1-picrylhydrazyl), a HAT (hydrogen atom transfer) procedure, widely-used for both natural and synthetic derivatives, and also the capacity for scavenging H2O2, one of the most common ROS in degenerative diseases, including cancer.
Herein, following Bahorun’s methodology, in vitro levels of H2O2 were measured in an indirect fashion, by registering the H2O2-mediated oxidation of phenol red in the presence of horseradish peroxidase, to give a chromophore with a maximum absorption at 610 nm. Accordingly, in the presence of an antioxidant agent, there is an inverse correlation between the observed absorbance, and the scavenging properties. Table 2 depicts the H2O2-scavenging properties of compounds prepared herein, and tested at a final 50 µM concentration.
Reported methodology was used with minor modifications.

T-47D (breast) = assay: Antiproliferative activity, NCI protocol; assay type: cell-based, human; settings: Homo sapiens, T47D, read-out: GI50 T-47D (Breast)
Procedure: as §1, §2

WiDr (colon) = assay: Antiproliferative activity, NCI protocol; assay type: cell-based, human; settings: Homo sapiens, WiDr, read-out: GI50 WiDr (Colon)
Procedure: as §1, §2

HeLa (cervix) = assay: Antiproliferative activity, NCI protocol; assay type: cell-based, human
Procedure: as §1, §2

HBL-100 (breast) = assay: Antiproliferative activity, NCI protocol; assay type: cell-based, human
Procedure: as §1, §2

[4] = test system: A549 (non-small cell lung); assay: Antiproliferative activity, NCI protocol; assay type: cell-based, human
Procedure: as §1, §2

[5] = test system: SW1573 (non-small cell lung); assay: Antiproliferative activity, NCI protocol; assay type: cell-based, human; settings: Homo sapiens
Procedure: as §1, §2

BJ-hTert (fibroblasts) = assay: Antiproliferative activity on non-tumour cells, NCI protocol; assay type: cell-based, human; settings: Homo sapiens, Fibroblast, read-out: GI50 BJ-hTert (Fibroblasts)
Procedure: as §1, §2

[6] = Free radical scavenging (DPPH method); settings: 30 min incubation, absorbance at 515 nm; for EC50: read-out: EC50 antiradical activity (DPPH)
Procedure: as §4
DPPH is a commercially-available stable free radical commonly used for in vitro testing of radical scavenging properties of antioxidants.
Reported methodology was used with minor modifications. To a 60 µM methanolic DPPH solution (1.17 mL), the antioxidant solution (5–7 different solutions, 30 µL) or solvent (control, 30 µL) were added. After 30 min. of incubation in the dark, absorbance was measured at 515 nm, and EC50 values were calculated.

SW1573 = assay: P-glycoprotein assay, wild type line; assay type: cell-based; settings: Homo sapiens, 48 h exposure
Procedure: as §3

c1cc2c(cc1C[Se][Se]Cc1ccc3c(c1)OCO3)OCO2 [Compound 39, Bis[(3’, 4’-methylenedioxyphenyl)methyl]diselenide]
GI50 over the tumour cell lines (range, bound or words) ([1]; summary over the tested tumour cell lines, highest tested concentration 100 µM): low micromolar‒submicromolar activities
GI50 at 48 h ([2]; with verapamil (concentration not stated), with verapamil, read-out: GI50 SW1573/PGP w Verapamil): 5.1 ± 0.4 µM
GI50 at 48 h ([2]; without verapamil, read-out: GI50 SW1573/PGP w/o Verapamil): 18 ± 0.1 µM
Rf w Verapamil (SW1573/Pgp; with verapamil): 2.0
Rf w/o Verapamil (SW1573/Pgp; without verapamil): 6.0
% Scavenging of H2O2 [3]: complete loss of ROS scavenging properties and ---
GI50 (T-47D (breast); drug resistant line): 2900 ± 400 nM
GI50 (WiDr (colon); drug resistant line): 1600 ± 300 nM
GI50 (HeLa (cervix); Homo sapiens, HeLa; read-out: GI50 HeLa (Cervix)): 2400 ± 1400 nM
GI50 (HBL-100 (breast); Homo sapiens, HBL-100; read-out: GI50 HBL-100 (Breast)): 2900 ± 600 nM
GI50 ([4]; Homo sapiens, A549; read-out: GI50 A549 (Lung)): 1200 ± 300 nM
GI50 ([5]; SW1573, Table S1, read-out: GI50 SW1573 (Lung)): 3200 ± 900 nM
GI50 (BJ-hTert (fibroblasts); non-tumour cell line): 3900 ± 1000 nM
EC50 antiradical activity (DPPH) [6]: complete impairment of activity
EC50 [6]: > 250 µM
GI50 (SW1573; with verapamil, read-out: GI50 SW153 w Verapamil): 2500 ± 100 nM
GI50 (SW1573; without verapamil, read-out: GI50 SW1573 w/o Verapamil): 3000 ± 500 nM

O=C(CCC[Se][Se]CCCC(=O)NCCc1ccc2c(c1)OCO2)NCCc1ccc2c(c1)OCO2 [Compound 46, 4,4’-Diselenobis{N-[2′’-(3′’’,4′’’-Methylenedioxyphenyl)ethyl]butanamide}]
fold improvement of potency against tumour cell lines compared to 16 ([1]; 46 (acetal) versus 16 (free catechol)): up to 30 fold
GI50 ([1]; Homo sapiens, read-out: GI50 over the tumour cell lines (range, bound or words)): 120 to 300 nM
fold increase in activity compared to CDDP ([1]; multidrug resistant cell lines (T-47D, WiDr)): ≤ 104 fold
% Scavenging of H2O2 [3]: complete loss of ROS scavenging properties and ---
GI50 (T-47D (breast)): 190 ± 40 nM
GI50 (WiDr (colon)): 250 ± 60 nM
GI50 (HeLa (cervix); Homo sapiens, HeLa, read-out: GI50 HeLa (Cervix)): 120 ± 10 nM
GI50 (HBL-100 (breast); Homo sapiens, HBL-100, read-out: GI50 HBL-100 (Breast)): 250 ± 20 nM
GI50 ([4]; Homo sapiens, A549, read-out: GI50 A549 (Lung)): 270 ± 20 nM
GI50 ([5]; SW1573, read-out: GI50 SW1573 (Lung)): 300 ± 30 nM
GI50 (BJ-hTert (fibroblasts)): 1000 ± 100 nM
EC50 antiradical activity (DPPH) [6]: complete impairment of activity
EC50 [6]: > 250 µM
